The text below walks through data of patent US9353082B2, “Pharmaceutical compounds” (BIAL—PORTELA & CA, S.A., priority 2008, dated 2016).

For one assay, the target named is T1, FAAH (Rattus norvegicus, UniProt P97612).
T1 construct: Frozen brains (without cerebellum) from Wistar rats were used; from tissue; host or cells: Wistar rat brain (without cerebellum), washed membrane pellets
T1 sequence (P97612 1-579): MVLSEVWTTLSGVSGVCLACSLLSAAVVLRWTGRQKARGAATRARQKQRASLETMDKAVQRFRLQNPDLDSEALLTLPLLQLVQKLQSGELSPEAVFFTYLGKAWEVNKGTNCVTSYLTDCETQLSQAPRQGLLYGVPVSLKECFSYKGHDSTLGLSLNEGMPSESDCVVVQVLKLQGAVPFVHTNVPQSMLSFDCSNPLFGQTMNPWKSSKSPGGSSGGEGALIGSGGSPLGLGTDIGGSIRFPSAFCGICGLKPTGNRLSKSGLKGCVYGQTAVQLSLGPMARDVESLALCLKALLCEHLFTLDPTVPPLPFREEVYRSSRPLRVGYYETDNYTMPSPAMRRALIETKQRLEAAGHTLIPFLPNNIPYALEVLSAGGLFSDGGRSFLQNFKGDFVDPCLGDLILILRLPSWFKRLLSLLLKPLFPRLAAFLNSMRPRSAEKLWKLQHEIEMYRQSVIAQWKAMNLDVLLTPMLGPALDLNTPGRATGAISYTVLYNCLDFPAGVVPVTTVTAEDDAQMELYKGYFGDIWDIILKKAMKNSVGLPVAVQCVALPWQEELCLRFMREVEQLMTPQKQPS
Kind of assay: In vitro FAAH activity in rat brain membranes, 3H-AEA substrate, % of control. The settings on record: 100 nM test compound, low value = strong inhibitor. It is filed as biochemical, Wistar rats. An outline of the steps: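 FAAH activity measured as 3H-ethanolamine released from 2 μM [3H]AEA over 10 min by rat brain membrane preparation, after 15 min 37 °C preincubation with test compound at 10 or 0.1 μM. Charcoal-separated supernatant scintillation-counted; values expressed as % of control minus no-protein blank.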
In the case of `COc1ccc(-c2ncn(C(=O)N3CCC(CCCc4ccccc4)CC3)n2)cc1` [Compound 205, (3-(4-methoxyphenyl)-1H-1,2,4-triazol-1-yl)(4-(3-phenylpropyl)piperidin-1-yl)methanone], the “In Vitro FAAH activity, 100 nM” value is reported as 0.2 % of control.
`CN(C(=O)n1nnc2ccc(O)cc21)C1CCCCC1` [Compound 242, N-cyclohexyl-6-hydroxy-N-methyl-1H-benzo[d][1,2,3]triazole-1-carboxamide]: the “In Vitro FAAH activity, 100 nM” value is listed as 0 % of control.
For the molecule `O=C(N1CCOCC1)n1cc(-c2ccccc2)nn1` [Compound 89, morpholino(4-phenyl-1H-1,2,3-triazol-1-yl)methanone], the “In Vitro FAAH activity, 100 nM” value is reported as 4.5 % of control.
Regarding `O=C(N1CCC(Oc2ccc(Cl)cc2)CC1)n1nnc2ccccc21` [Compound 117, (1H-benzo[d][1,2,3]triazol-1-yl)(4-(4-chlorophenoxy)piperidin-1-yl)methanone], the “In Vitro FAAH activity, 100 nM” value is recorded as 0.1 % of control.
In the case of `O=C(N1CCC(Oc2ccc(OCc3ccccc3)cc2)CC1)n1nnc2ccccc21` [Compound 164, (1H-benzo[d][1,2,3]triazol-1-yl)(4-(4-(benzyloxy)phenoxy)piperidin-1-yl)methanone], the “In Vitro FAAH activity, 100 nM” value is recorded as 0.3 % of control.
Same read-out and setting: in the case of `CC(C)N(Cc1ccccc1)C(=O)n1cnc(-c2ccc(Cl)cc2)c1` [Compound 249, N-benzyl-4-(4-chlorophenyl)-N-isopropyl-1H-imidazole-1-carboxamide] it was 95.8 % of control.
For the molecule `CN1CCN(C(=O)n2nnc3ccccc32)CC1.Cl` [Compound 83, (1H-benzo[d][1,2,3]triazol-1-yl)(4-methylpiperazin-1-yl)methanone hydrochloride], the “In Vitro FAAH activity, 100 nM” value is listed as 2.5 % of control.
`O=C(N1CCN(Cc2ccccc2)CC1)n1cnc(-c2ccccc2)c1` [Compound 102, (4-benzylpiperazin-1-yl)(4-phenyl-1H-imidazol-1-yl)methanone]: the “In Vitro FAAH activity, 100 nM” value was 0.9 % of control.
Take `O=C(N1CCC2(CC1)OCCO2)n1cnc(-c2ccc(Cl)cc2)n1` [Compound 204, (3-(4-chlorophenyl)-1H-1,2,4-triazol-1-yl)(1,4-dioxa-8-azaspiro[4.5]decan-8-yl)methanone]: the “In Vitro FAAH activity, 100 nM” value is 15.8 % of control.
Turning to `COc1ccc(-c2ncn(C(=O)N(C)c3ccccc3)n2)cc1` [Compound 64, 3-(4-methoxyphenyl)-N-methyl-N-phenyl-1H-1,2,4-triazole-1-carboxamide], the “In Vitro FAAH activity, 100 nM” value was 67.9 % of control.
On to `O=C(N1CCCC1)n1cnc(-c2ccc(Cl)c(Cl)c2)c1` [Compound 218, (4-(3,4-dichlorophenyl)-1H-imidazol-1-yl)(pyrrolidin-1-yl)methanone], for which the “In Vitro FAAH activity, 100 nM” value is on record as 31.6 % of control.
Take `O=C(N1CCS(=O)(=O)C1)n1cnc(-c2ccc(Cl)cc2)n1` [Compound 253, 3-(4-chlorophenyl)-1-[(1,1-dioxido-1,3-thiazolidin-3-yl)carbonyl]-1H-1,2,4-triazole]: the “In Vitro FAAH activity, 100 nM” value is 107.7 % of control.
Take `O=C(N1CCc2ccccc2C1)n1cnc(-c2ccccc2)c1` [Compound 184, (3,4-dihydroisoquinolin-2(1H)-yl)(4-phenyl-1H-imidazol-1-yl)methanone]: the “In Vitro FAAH activity, 100 nM” value is 30.2 % of control.
For the molecule `CCCCCCCCCCCCNC(=O)n1nnc2ccccc21` [Compound 86, N-dodecyl-1H-benzo[d][1,2,3]triazole-1-carboxamide], the “In Vitro FAAH activity, 100 nM” value is recorded as 0 % of control.
In the case of `O=C(N1CCN(c2ccccc2)CC1)n1cnc(-c2cccc3ccccc23)n1` [Compound 206, (3-(naphthalen-1-yl)-1H-1,2,4-triazol-1-yl)(4-phenylpiperazin-1-yl)methanone], the “In Vitro FAAH activity, 100 nM” value is recorded as 3.3 % of control.
With `CN1CCN(C2CCN(C(=O)n3nnc4ccccc43)CC2)CC1.Cl` [Compound 122, (1H-benzo[d][1,2,3]triazol-1-yl)(4-(4-methylpiperazin-1-yl)piperidin-1-yl)methanone hydrochloride], the “In Vitro FAAH activity, 100 nM” value was 93 % of control.
The same measure, in the same setting: in the case of `Cl.O=C(N1CCC(N2CCCCC2)CC1)n1nnc2ccccc21` [Compound 82, 1,4′-bipiperidin-1′-yl(1H-benzo[d][1,2,3]triazol-1-yl)methanone hydrochloride] it was 69.3 % of control.
Consider `CN(C(=O)n1cnc(-c2ccc(O)cc2)c1)c1ccccc1` [Compound 38, 4-(4-hydroxyphenyl)-N-methyl-N-phenyl-1H-imidazole-1-carboxamide], for which the “In Vitro FAAH activity, 100 nM” value is given as 83.9 % of control.
For `O=C(Nc1ccc(-c2ccccc2)cc1)n1ccc(-c2ccccc2)n1` [Compound 15, N-(biphenyl-4-yl)-3-phenyl-1H-pyrazole-1-carboxamide], the “In Vitro FAAH activity, 100 nM” value is given as 103.8 % of control.
The same measure, in the same setting: the result for `O=C(N1CCc2ccccc2C1)n1cnc(-c2ccc(Cl)cc2)n1` [Compound 185, (3-(4-chlorophenyl)-1H-1,2,4-triazol-1-yl)(3,4-dihydroisoquinolin-2(1H)-yl)methanone] reads 71.8 % of control.
Regarding `O=C(N1CCN(c2ccc(OCc3ccccc3)cc2)CC1)n1nnc2ccccc21` [Compound 91, (1H-benzo[d][1,2,3]triazol-1-yl)(4-(4-(benzyloxy)phenyl)piperazin-1-yl)methanone], the “In Vitro FAAH activity, 100 nM” value is 0 % of control.
Same read-out and setting: in the case of `COc1cccc(OCC2CCN(C(=O)n3nnc4ccccc43)CC2)c1` [Compound 153, (1H-benzo[d][1,2,3]triazol-1-yl)(4-((3-methoxyphenoxy)methyl)piperidin-1-yl)methanone] it was 0 % of control.

Staying with this assay, now noted: 10 uM test compound, low value = strong inhibitor.
As for `O=C(Nc1ccccc1)n1cccn1` [Compound 9, N-phenyl-1H-pyrazole-1-carboxamide], the “In Vitro FAAH activity, 10 uM” value is 78.6 % of control.
For the molecule `O=C(N1CCOCC1)n1ccc(-c2ccccc2)n1` [Compound 13, morpholino(3-phenyl-1H-pyrazol-1-yl)methanone], the “In Vitro FAAH activity, 10 uM” value is recorded as 89.7 % of control.
`CN(C(=O)n1cnc(-c2ccc(O)cc2)c1)c1ccccc1` [Compound 38, 4-(4-hydroxyphenyl)-N-methyl-N-phenyl-1H-imidazole-1-carboxamide]: the “In Vitro FAAH activity, 10 uM” value is on record as 0 % of control.
Take `O=C(Nc1ccc(-c2ccccc2)cc1)n1ccc(-c2ccccc2)n1` [Compound 15, N-(biphenyl-4-yl)-3-phenyl-1H-pyrazole-1-carboxamide]: the “In Vitro FAAH activity, 10 uM” value is reported as 66.9 % of control.

Staying with this assay, now noted: rat brain membranes, compound at 100 nM, low value = strong inhibitor.
In the case of `CC1(C)COCN1C(=O)n1cnc(-c2ccccc2)n1` [Compound 285, (4,4-dimethyloxazolidin-3-yl)(3-phenyl-1H-1,2,4-triazol-1-yl)methanone], the “In Vitro 100 nM (FAAH activity, % of control)” value was 85.4 % of control.
With `CN(C(=O)n1cnc(-c2ccccc2)n1)C1CCCCC1` [Compound 283, N-cyclohexyl-N-methyl-3-phenyl-1H-1,2,4-triazole-1-carboxamide], the “In Vitro 100 nM (FAAH activity, % of control)” value is on record as 75.1 % of control.
Same read-out and setting: in the case of `CN(C(=O)n1cnc(-c2cccc(OCc3ccccc3)c2)c1)C12CC3CC(CC(C3)C1)C2` [Compound 288, 4-[3-(benzyloxy)phenyl]-N-methyl-N-tricyclo[3.3.1.13,7]dec-1-yl-1H-imidazole-1-carboxamide] it was 114.8 % of control; in that of `COc1ccc(-c2cn(C(=O)N(C)C3CCCC3)cn2)cc1OC` [Compound 281, N-cyclopentyl-4-(3,4-dimethoxyphenyl)-N-methyl-1H-imidazole-1-carboxamide], 25.5 % of control.
